Experimental data from US10709758B2 (priority 2015, dated 2020).

target: TcdB1 (Clostridioides difficile, UniProt P18177)
Sequence (P18177 2-2366 limits assumed): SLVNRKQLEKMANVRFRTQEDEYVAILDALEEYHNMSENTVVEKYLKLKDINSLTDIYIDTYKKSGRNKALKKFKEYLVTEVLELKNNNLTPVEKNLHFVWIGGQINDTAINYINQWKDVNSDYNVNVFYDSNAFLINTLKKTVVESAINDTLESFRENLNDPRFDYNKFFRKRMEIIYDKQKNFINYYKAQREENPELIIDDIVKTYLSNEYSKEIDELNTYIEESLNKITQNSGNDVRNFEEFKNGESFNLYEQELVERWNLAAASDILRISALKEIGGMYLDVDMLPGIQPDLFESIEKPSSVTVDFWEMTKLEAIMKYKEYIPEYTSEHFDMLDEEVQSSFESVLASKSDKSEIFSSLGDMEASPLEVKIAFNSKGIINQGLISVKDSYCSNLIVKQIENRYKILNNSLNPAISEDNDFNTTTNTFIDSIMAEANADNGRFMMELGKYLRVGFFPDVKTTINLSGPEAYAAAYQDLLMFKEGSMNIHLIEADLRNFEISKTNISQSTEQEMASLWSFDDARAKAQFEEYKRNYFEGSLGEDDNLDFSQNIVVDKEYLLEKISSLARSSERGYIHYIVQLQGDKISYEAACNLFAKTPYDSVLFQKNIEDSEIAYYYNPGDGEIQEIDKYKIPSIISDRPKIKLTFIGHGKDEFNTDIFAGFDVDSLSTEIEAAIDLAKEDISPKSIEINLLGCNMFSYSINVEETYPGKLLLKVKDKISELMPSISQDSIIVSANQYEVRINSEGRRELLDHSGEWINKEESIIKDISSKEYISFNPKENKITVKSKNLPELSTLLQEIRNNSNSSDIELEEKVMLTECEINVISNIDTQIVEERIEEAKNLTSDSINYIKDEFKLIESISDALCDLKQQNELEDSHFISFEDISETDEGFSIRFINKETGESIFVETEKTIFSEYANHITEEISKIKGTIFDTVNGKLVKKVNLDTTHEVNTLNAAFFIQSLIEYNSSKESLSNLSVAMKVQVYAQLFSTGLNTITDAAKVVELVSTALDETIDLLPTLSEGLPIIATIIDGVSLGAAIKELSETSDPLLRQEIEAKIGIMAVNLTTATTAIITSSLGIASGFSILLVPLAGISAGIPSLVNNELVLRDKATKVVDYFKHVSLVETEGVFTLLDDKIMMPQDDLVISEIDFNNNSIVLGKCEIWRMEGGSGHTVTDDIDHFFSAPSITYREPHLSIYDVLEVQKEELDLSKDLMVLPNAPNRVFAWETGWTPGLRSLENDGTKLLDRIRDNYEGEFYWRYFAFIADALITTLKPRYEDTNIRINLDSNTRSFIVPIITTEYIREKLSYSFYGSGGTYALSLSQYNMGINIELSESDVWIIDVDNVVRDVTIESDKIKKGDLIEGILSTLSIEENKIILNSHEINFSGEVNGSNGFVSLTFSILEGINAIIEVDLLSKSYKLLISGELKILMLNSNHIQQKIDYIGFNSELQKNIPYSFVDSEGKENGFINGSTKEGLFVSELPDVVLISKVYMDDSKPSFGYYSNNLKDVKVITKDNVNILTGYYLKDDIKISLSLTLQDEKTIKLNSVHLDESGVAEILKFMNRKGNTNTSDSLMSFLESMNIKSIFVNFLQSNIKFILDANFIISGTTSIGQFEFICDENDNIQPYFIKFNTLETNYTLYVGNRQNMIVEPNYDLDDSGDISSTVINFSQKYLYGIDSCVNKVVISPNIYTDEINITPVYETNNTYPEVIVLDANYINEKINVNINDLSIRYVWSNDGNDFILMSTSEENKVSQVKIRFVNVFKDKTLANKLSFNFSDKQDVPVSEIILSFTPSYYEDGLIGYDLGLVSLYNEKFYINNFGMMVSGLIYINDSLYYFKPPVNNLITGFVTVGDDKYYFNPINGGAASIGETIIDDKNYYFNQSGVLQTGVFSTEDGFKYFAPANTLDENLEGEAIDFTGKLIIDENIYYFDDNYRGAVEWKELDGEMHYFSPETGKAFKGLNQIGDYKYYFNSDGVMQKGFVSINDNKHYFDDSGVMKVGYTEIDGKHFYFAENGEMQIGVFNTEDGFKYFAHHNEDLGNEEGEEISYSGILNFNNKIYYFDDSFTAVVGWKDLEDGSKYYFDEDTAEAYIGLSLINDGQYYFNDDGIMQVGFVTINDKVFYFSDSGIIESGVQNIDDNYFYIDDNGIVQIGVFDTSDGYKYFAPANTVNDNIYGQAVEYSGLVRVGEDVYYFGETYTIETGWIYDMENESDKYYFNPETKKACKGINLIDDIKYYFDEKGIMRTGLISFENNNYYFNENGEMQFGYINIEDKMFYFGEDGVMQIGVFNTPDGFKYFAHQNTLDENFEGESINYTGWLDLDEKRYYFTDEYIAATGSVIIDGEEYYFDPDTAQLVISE

**Q.** Which “TcdB inhibitory activity of PepB2/PepB1 substitution variants” value does the source give for NVFKDKTISDKISFNFSDK [PepB2-GN5-6DK] here?
**A.** inhibitory activity of the resulting peptide was lost

**Q.** How did the “TcdB inhibitory activity of PepB2/PepB1 substitution variants” value turn out when NVFKDNTISDKISFNFSDK [PepB2-G5D] was run?
**A.** inhibitor activity was lost

**Q.** How did the “TcdB inhibitory activity of PepB2/PepB1 substitution variants” value turn out when NVFKGKTISDKISFNFSDK [PepB2-N6K] was run?
**A.** TcdB inhibitory activity also disappeared

**Q.** With NVFKGNTLANKLSFNFSDK [PepB1-DK5-6GN] as the sequence, how does the “TcdB inhibitory activity of PepB2/PepB1 substitution variants” value read?
**A.** Inhibitory activity was gained

**Q.** Which “TcdB inhibitory activity of PepB2/PepB1 substitution variants” value does the source give for NVFKSNTISDKISFNFSDK [PepB2-G5S] here?
**A.** activity was also lost
